According to ChEMBL document CHEMBL1130959, “Synthesis and effects of novel thiazole derivatives against thrombocytopenia” (1998):

Key:
Format in all cases: functional
Settings in all cases: route oral
[1] = test system: Mus musculus; assay: Percentage of the number of platelets for the treated versus mitomycin C(MMC) control group in the MMC-induced thrombocytopenic mice at a dose of 100 mg/kg following peroral administration
[2] = test system: Mus musculus; assay: Percentage of the number of platelets for the treated versus mitomycin C(MMC) control group in the MMC-induced thrombocytopenic mice at a dose of 10 mg/kg following peroral administration
[3] = test system: Mus musculus; assay: Percentage of the number of platelets for the treated versus mitomycin C(MMC) control group in the MMC-induced thrombocytopenic mice at a dose of 32 mg/kg following peroral administration

Row | SMILES | No. of platelets [1] [%] | No. of platelets [2] [%] | No. of platelets [3] [%]
1 | Nc1ncc([S+]([O-])c2cnc3ccccc3n2)s1 (configuration not stated) | 131 | – | –
2 | Nc1ncc(C(=O)c2ccccn2)s1 | 140 | – | –
3 | Nc1ncc([S+]([O-])c2nc3ccccc3[nH]2)s1 (configuration not stated) | 165 | 92 | 112
4 | Nc1ccc(S(=O)(=O)c2ccc(N)cc2)cc1 [DAPSONE] | 150 | 91 | 125
5 | Nc1ncc(Sc2ccccn2)s1 | 147 | – | –
6 | Cc1ccc2nc([S+]([O-])c3cnc(N)s3)ccc2c1 (configuration not stated) | 146 | – | –
7 | Nc1ncc([S+]([O-])c2ccc3cccnc3n2)s1 (configuration not stated) | – | – | 130
8 | [O-][S+](c1ccccn1)c1cncs1 (configuration not stated) | 171 | 124 | 148
9 | Cc1nc(N)sc1[S+]([O-])c1ccccn1 (configuration not stated) | 118 | – | –
10 | Nc1ncc([S+]([O-])c2ccccn2)s1 (configuration not stated) | – | – | 154
11 | Nc1ncc([S+]([O-])c2cccnc2)s1 (configuration not stated) | – | – | 115
12 | Nc1ncc([S+]([O-])c2ccc3cc(F)ccc3n2)s1 (configuration not stated) | 162 | – | –
13 | Nc1ncc([S+]([O-])c2cccs2)s1 (configuration not stated) | 138 | – | –
14 | Nc1ncc([S+]([O-])c2cccc3cccnc23)s1 (configuration not stated) | 188 | 116 | 123
15 | Nc1ncc([S+]([O-])c2ccc3ccccc3n2)s1 (configuration not stated) | 181 | 138 | 153
16 | Nc1nnc([S+]([O-])c2ccc3ccccc3n2)s1 (configuration not stated) | 102 | – | –
17 | CNc1ncc([S+]([O-])c2ccccn2)s1 (configuration not stated) | 132 | – | –
18 | Nc1ncc([S+]([O-])c2ncccn2)s1 (configuration not stated) | – | – | 116
19 | Nc1ncc([S+]([O-])c2nccs2)s1 (configuration not stated) | 146 | – | –
20 | Nc1ncc(S(=O)(=O)c2ccccn2)s1 | 139 | 94 | 143
